Measurements reported in patent US10450421B2, “Synthesis of multiarm poly[(R)-3-hydroxybutyrate] and its derivatives” (AGENCY FOR SCIENCE, TECHNOLOGY AND RESEARCH, priority 2015, dated 2019).
Ends that are not written are not given here.

Assays:
S. aureus = experiment: Antimicrobial test, MIC against S. aureus; assay type: cell-based; details: Gram-positive bacteria S. aureus (n = 2)
Protocol: (§1) The solutions based on the Q-PHB-PDMAEMA were tested for efficacy in killing clinically significant pathogens: the […] and Gram-negative bacteria (E. coli).

E. coli = experiment: Antimicrobial test, MIC against E. coli; assay type: cell-based; details: Gram-negative bacteria E. coli (n = 2)
Protocol: as §1

## GIGKFLHSAGKFGKAFVGEIMKS [Magainin I]
S. aureus
  MIC: 130 µg/mL
E. coli
  MIC: 130 µg/mL
